In the supplement of paper PMC11061612:

How the values were obtained:
Assay in all cases: Bliss excess, mean over the matrix (fraction); higher = more synergy
[1] = test system: NUGC-4 (Gastric Carcinoma)
How it was run: (§1)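 After 24 hours at 37°C and 5% CO2 in 1536-well plates, cells in DMEM/F12 or RPMI plus 10% FBS received two-drug dose matrices for 72 hours. Viability came from CellTiter-Glo 2.0 luminescence and was scaled as inhibition, anchored at 0 by vehicle wells and at 1 by blank wells. Combination Emax is taken as the second-highest inhibition in the matrix, and Bliss excess as the observed combination effect less EA + EB − EA·EB, with EA and EB the single-agent effects.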

BE2-M17 (Neuroblastoma) = test system: BE2-M17 (Neuroblastoma)
How it was run: as §1

BPH-1 (Non-Cancerous) = test system: BPH-1 (Non-Cancerous)
How it was run: as §1

[2] = test system: L-428 (Hodgkin's Lymphoma)
How it was run: as §1

[3] = test system: WSU-NHL (B-Cell Non-Hodgkin's Lymphoma)
How it was run: as §1

LOXIMVI (Melanoma) = test system: LOXIMVI (Melanoma)
How it was run: as §1

[4] = test system: HuCCT1 (Biliary Tract Carcinoma)
How it was run: as §1

[5] = test system: ALL-PO (B-Lymphoblastic Leukemia)
How it was run: as §1

NCI-H2722 (Mesothelioma) = test system: NCI-H2722 (Mesothelioma)
How it was run: as §1

[6] = test system: TGBC1TKB (Biliary Tract Carcinoma)
How it was run: as §1

[7] = test system: Hs-746T (Gastric Carcinoma)
How it was run: as §1

[8] = test system: FTC-133 (Thyroid Gland Carcinoma)
How it was run: as §1

[9] = test system: HeLa (Cervical Carcinoma)
How it was run: as §1

[10] = test system: LCLC-97TM1 (Non-Small Cell Lung Carcinoma)
How it was run: as §1

[11] = test system: SAS (Oral Cavity Carcinoma)
How it was run: as §1

[12] = test system: OVCAR-5 (Ovarian Carcinoma)
How it was run: as §1

[13] = test system: LNZTA3WT4 (Low Grade Glioma)
How it was run: as §1

[14] = test system: KMRC-20 (Kidney Carcinoma)
How it was run: as §1

[15] = test system: HH (T-Cell Non-Hodgkin's Lymphoma)
How it was run: as §1

[16] = test system: HuH-7 (Hepatocellular Carcinoma)
How it was run: as §1

Compound	Bliss excess [1]	Bliss excess (BE2-M17 (Neuroblastoma))	Bliss excess (BPH-1 (Non-Cancerous))	Bliss excess [2]	Bliss excess [3]	Bliss excess (LOXIMVI (Melanoma))	Bliss excess [4]	Bliss excess [5]	Bliss excess (NCI-H2722 (Mesothelioma))	Bliss excess [6]	Bliss excess [7]	Bliss excess [8]	Bliss excess [9]	Bliss excess [10]	Bliss excess [11]	Bliss excess [12]	Bliss excess [13]	Bliss excess [14]	Bliss excess [15]	Bliss excess [16]
CC1(C)CCC(CN2CCN(c3ccc(C(=O)NS(=O)(=O)c4ccc(NCC5CCOCC5)c([N+](=O)[O-])c4)c(Oc4cnc5[nH]ccc5c4)c3)CC2)=C(c2ccc(Cl)cc2)C1 [Venetoclax] + CCN(CCO)CCCOc1ccc2c(Nc3cc(CC(=O)Nc4cccc(F)c4)[nH]n3)ncnc2c1 [AZD2811] (first compound max 1 µM, 7x7, partner max 1 µM)	-0.0481	0.107	-0.0198	0.0178	-0.0879	0.0139	-0.0062	0.0129	-0.0269	-0.0225	-0.0383	0.0192	0.0336	-0.0053	0.009	-0.0482	0.0218	-0.0273	-0.0152	-0.0133
CC1(C)CCC(CN2CCN(c3ccc(C(=O)NS(=O)(=O)c4ccc(NCC5CCOCC5)c([N+](=O)[O-])c4)c(Oc4cnc5[nH]ccc5c4)c3)CC2)=C(c2ccc(Cl)cc2)C1 [Venetoclax] + CN(C)CCCOc1ccc(-c2ccc3ncc4c(c3c2)n(C2CCOCC2)c(=O)n4C)cn1 [AZD0156] (first compound max 1 µM, 7x7, partner max 1 µM)	-0.0644	0.0093	-0.0214	-0.0057	-0.0402	0.0539	-0.002	0.108	-0.081	-0.0186	-0.0043	0.0019	-0.0178	-0.0466	-0.033	-0.0195	-0.0469	-0.0023	-0.0066	0.0028
CC1(C)CCC(CN2CCN(c3ccc(C(=O)NS(=O)(=O)c4ccc(NCC5CCOCC5)c([N+](=O)[O-])c4)c(Oc4cnc5[nH]ccc5c4)c3)CC2)=C(c2ccc(Cl)cc2)C1 [Venetoclax] + COc1cc(Nc2ncc3c(n2)-c2ccc(Cl)cc2C(c2c(F)cccc2OC)=NC3)ccc1C(=O)O [Alisertib] (first compound max 1 µM, 7x7, partner max 10 µM)	-0.0557	0.215	-0.0459	0.0501	-0.0521	-0.0332	-0.0148	0.0529	-0.0855	-0.0367	0.0096	0.0138	0.0517	0.0449	-0.0842	-0.0703	0.023	0.0226	-0.0223	-0.0508
CC1(C)CCC(CN2CCN(c3ccc(C(=O)NS(=O)(=O)c4ccc(NCC5CCOCC5)c([N+](=O)[O-])c4)c(Oc4cnc5[nH]ccc5c4)c3)CC2)=C(c2ccc(Cl)cc2)C1 [Venetoclax] + C[C@@H]1COCCN1C2=NC(=NC(=C2)C3(CC3)[S@](=N)(=O)C)C4=C5C=CNC5=NC=C4 [AZD6738] (first compound max 1 µM, 7x7, partner max 10 µM)	-0.011	-0.0661	-0.0336	0.0164	-0.0913	-0.011	-0.012	0.0306	-0.0405	-0.0517	-0.063	-0.0014	-0.0688	-0.0506	0.0194	-0.0717	0.0105	-0.0047	-0.0012	-0.0181
CC1(C)CCC(CN2CCN(c3ccc(C(=O)NS(=O)(=O)c4ccc(NCC5CCOCC5)c([N+](=O)[O-])c4)c(Oc4cnc5[nH]ccc5c4)c3)CC2)=C(c2ccc(Cl)cc2)C1 [Venetoclax] + C[C@@H](Nc1cc(F)cc(F)c1)c1cc(C(=O)N(C)C)cc2c(=O)cc(N3CCOCC3)oc12 [AZD8186] (first compound max 1 µM, 7x7, partner max 3 µM)	0.0298	-0.0069	-0.0385	0.0037	0.0209	-0.0243	-0.0383	0.202	-0.0546	-0.0558	-0.004	-0.0168	-0.0326	-0.0368	-0.0332	-0.0495	-0.0539	-0.0195	0.0221	-0.0304
CC1(C)CCC(CN2CCN(c3ccc(C(=O)NS(=O)(=O)c4ccc(NCC5CCOCC5)c([N+](=O)[O-])c4)c(Oc4cnc5[nH]ccc5c4)c3)CC2)=C(c2ccc(Cl)cc2)C1 [Venetoclax] + Cc1cc2ncnn2cc1Nc1ncc2c(n1)n(C1CCOCC1)c(=O)n2C [AZD7648] (first compound max 1 µM, 7x7, partner max 10 µM)	-0.0714	0.0002	-0.0517	-0.0548	-0.082	-0.0277	-0.0609	0.11	-0.042	-0.043	-0.0131	-0.0156	-0.0354	-0.0144	-0.0055	-0.075	-0.0353	0.0019	-0.0061	-0.022
CC1(C)CCC(CN2CCN(c3ccc(C(=O)NS(=O)(=O)c4ccc(NCC5CCOCC5)c([N+](=O)[O-])c4)c(Oc4cnc5[nH]ccc5c4)c3)CC2)=C(c2ccc(Cl)cc2)C1 [Venetoclax] + Cn1cnc2c(F)c(Nc3ccc(Br)cc3Cl)c(C(=O)NOCCO)cc21 [Selumetinib] (first compound max 1 µM, 7x7, partner max 3 µM)	-0.0467	-0.0116	0.0055	-0.0042	-0.131	-0.0228	-0.0128	0.0801	-0.0741	-0.0542	-0.0192	-0.0232	-0.0369	-0.0023	-0.0533	-0.069	-0.0321	0.0022	-0.0387	-0.055
